Consider 57 compounds from PubChem BioAssay AID743095 (The Scripps Research Institute Molecular Screening Center, 2013).

The source made the active and inactive calls. The rule behind the calls is not given here. Where only a bound is given, the exact number is not on record here.

This experiment has as its target Galanin receptor type 3 (Homo sapiens) (UniProt O60755). Briefly: human galanin receptor 3 blockers, IC50 – cell-based, fluorescence, dose response, late-stage follow-up (AID 743095). The following applies: GalR3 cell line, fluorescence antagonist assay.

Regarding `COc1ccc(CN2CCC(C(=O)Nc3ccc(Oc4ccccc4)nc3)CC2)cc1F`, the IC50 is 6970 nM.

Regarding `CC(C)(C)NC(=O)COC(=O)c1snc(C(=O)NC2CCCCC2)c1N`, the IC50 is 3190 nM.

With `Cc1nn(C)c(Cl)c1NC(=O)OCc1ccc(Cl)cc1Cl`, the IC50 was 4160 nM.

On to `CCCOC(=O)c1ccc(OCC(O)Cn2c(C)nc3ccccc32)cc1` (configuration not stated), for which the IC50 was 3270 nM.

Consider `Cc1ccc(Oc2ccc(OCC(=O)Nc3ccncc3)cc2)cc1`, for which the IC50 was 428 nM.

In the case of `Cc1nc2ccccc2n1Cc1ccc(Cl)cc1`, the IC50 is 1260 nM.

In the case of `CC(=O)c1cn(CC(=O)NCCc2c[nH]c3ccccc23)c2ccccc12`, the IC50 is 4140 nM.

Turning to `CCN(CC)S(=O)(=O)c1cc(NC(=O)CNc2cccc(S(=O)(=O)N3CCOCC3)c2)ccc1C`, the IC50 is 3560 nM.

As for `Cc1oc(-c2ccc(Cl)cc2)nc1CSCC(=O)NC1CCN(Cc2ccccc2)CC1`, the IC50 was 1320 nM.

In the case of `CC(C)(C)CN1CCN(Cc2nc(-c3ccc(F)cc3)cs2)CC1CCO` (configuration not stated), the IC50 is 3240 nM.

For `COc1ccc(C(=O)CSc2nnc(Cn3cnc4ccccc43)o2)cc1`, the concentration for half-maximal inhibition (IC50) was 3180 nM.

As for `CCCCc1ccc(NC(=O)c2ccc(N(C)S(C)(=O)=O)cc2)cc1`, the 50% inhibitory concentration (IC50) was 696 nM.

For `Cc1nn(C)c(Nc2ccc(Br)cc2)c1Br`, the IC50 was 4140 nM.

On to `N#Cc1cc(-c2ccccc2)oc1NC(=O)c1ccco1`, for which the IC50 entry was “inactive”.

Take `Cn1nc(C(C)(C)C)cc1C(=O)NCc1ccc(N2CCCC2=O)cc1`: the IC50 was 5270 nM.

Take `CCOC(=O)Cc1csc(NC(=O)c2cc(=O)c3ccccc3o2)n1`: the IC50 is 5810 nM.

Turning to `O=C(COc1ccc(C(=O)c2ccccc2)cc1)Nc1cccnc1`, the IC50 was 1240 nM.

Turning to `CSc1ccc(C(=O)C2CCCN(C(=O)CCc3c(C)nn(C)c3C)C2)cc1` (configuration not stated), the IC50 is 4150 nM.

For `COc1ccc(OC)c(CCNC(=O)Cn2nc(C)c3c(C)n(-c4ccc(C)cc4)nc3c2=O)c1`, the IC50 is 3800 nM.

For the compound `CC(C)(C)c1ccc(C(=O)Nc2ccc(Oc3cccnc3)nc2)cc1`, the IC50 is 1140 nM.

Consider `Nc1nonc1-n1nnc(C(=O)N/N=C/c2cc(Br)ccc2O)c1CSC1=NCCS1`, for which the IC50 was 6280 nM.

As for `CCOC(=O)c1[nH]c2ccc(OC)cc2c1NS(=O)(=O)c1ccc(Cl)s1`, the IC50 was 3140 nM.

Consider `Cc1cc(CSc2ccccc2)ccc1NC(=O)c1ccc(CN2CCOCC2)cc1`, for which the IC50 was 529 nM.

Consider `Fc1ccc(NC(=S)N2CCCN(c3ccc(C(F)(F)F)cn3)CC2)c(F)c1`, for which the IC50 is 402 nM.

As for `COc1cccc2[nH]c3c(N4CCC(C)CC4)ncnc3c12`, the IC50 was 2760 nM.

With `NC(=O)c1nnn(Cc2cc(Cl)c(C(=O)c3ccc(Cl)cc3)c(Cl)c2)c1N`, the IC50 is 3440 nM.

For `Cc1[nH]c(=O)c(C#N)cc1-c1ccccc1`, the IC50 entry was “inactive”.

In the case of `CC(=O)c1c(C)[nH]c(C(=O)COc2cc(C)ccc2C(C)C)c1C`, the IC50 is 3580 nM.

Consider `CCOc1nc(C#N)nc(N2CCCCC2)n1`, for which the IC50 is 2820 nM.

Turning to `O=C(CSc1nnnn1C1CC2CCC1C2)Nc1ccnc2ccccc12` (configuration not stated), the IC50 was 140 nM.

In the case of `Cc1cccc(Cl)c1NC(=O)N1CCCN(c2nc3ccc(Cl)cc3s2)CC1`, the IC50 was 1950 nM.

For `CC1CC(=O)NN=C1c1ccc(N)c([N+](=O)[O-])c1` (configuration not stated), the IC50 was 596 nM.

Consider `COc1cc2c(cc1OC)[C@@H]1C(=O)c3ccc4c(c3O[C@@H]1CO2)C[C@H](C(C)C)O4`, for which the IC50 is 12.3 nM.

As to `COc1ccc(-n2c(C)cc(C(=O)COC(=O)Cn3cnc4ccccc43)c2C)cc1`, the IC50 was > 29900 nM (inactive).

With `CC(C)(C)c1ccc(-n2ncc3c2CCCC3NC(=O)C2(C(N)=O)CC2)cc1` (configuration not stated), the IC50 was 2000 nM.

Turning to `Cc1nn(C)c(C)c1CN(C)S(=O)(=O)c1ccc2ccccc2c1`, the IC50 was 1230 nM.

Turning to `O=C(Nc1nc(-c2ccc(Cl)cc2Cl)cs1)c1ccc(OCC2CCCO2)cc1` (configuration not stated), the IC50 is 1080 nM.

For the compound `O=C(Cc1ccc(Cl)cc1Cl)Nc1ccncc1Cl`, the IC50 was 3890 nM.

In the case of `COc1ccc(CCNc2ncnc3sccc23)cc1OC`, the IC50 is 438 nM.

For the compound `Nc1cc(-c2ccc(Br)cc2)nn1Cc1ccccc1`, the IC50 was 3620 nM.

Consider `O=C(CSc1nnc(Cn2nnc3ccccc32)o1)N(Cc1ccc(F)cc1)c1ccccc1`, for which the IC50 was 1240 nM.

Take `COc1ccc(NS(=O)(=O)c2ccc(NC(=O)c3ccc(CN4CCOCC4)cc3)cc2)cc1`: the IC50 was 3000 nM.

For `Cc1cc(C(=O)CSc2nc(N)cc(=O)[nH]2)c(C)n1-c1ccc(OC(F)F)cc1`, the IC50 was 1350 nM.

In the case of `CCCOc1ccc(CSc2nc3ccccc3[nH]2)cc1`, the IC50 was 1200 nM.

Regarding `O=S(=O)(NCc1ccncc1)c1ccc(Br)s1`, the IC50 is 1800 nM.

As to `Cc1ccccc1Cn1c(C)nc2ccccc21`, the IC50 was 3410 nM.

With `CNc1ccccc1C(C)(C)c1cc(-c2ccc(F)cc2)no1`, the IC50 was 3830 nM.

As for `Cc1cc(C)nc(SCC(=O)Nc2ccnc3ccccc23)n1`, the IC50 is 1170 nM.

For `Cc1ccccc1-c1cc(C(=O)Nc2sc(C(=O)OC(C)C)c(C)c2C#N)c2ccccc2n1`, the 50% inhibitory concentration (IC50) is 1130 nM.

On to `CC1(C)CC2CC(C)(CN2S(=O)(=O)c2ccc(C(=O)Nc3cccc(S(=O)(=O)N4CCOCC4)c3)cc2)C1` (configuration not stated), for which the IC50 was 2110 nM.

Turning to `NC(=O)c1c(-c2ccc(Cl)cc2Cl)csc1NC(=O)Cc1ccccc1`, the IC50 is 2370 nM.

For `COc1ccc(CN(C)c2ccc(S(=O)(=O)N3CCN(C)CC3)cc2[N+](=O)[O-])cc1OC`, the IC50 is 448 nM.

Turning to `CCOc1cc(S(=O)(=O)NCc2ccncc2)ccc1Cl`, the IC50 was 269 nM.

In the case of `CCCCCn1c(=O)[nH]c2cc(C(=O)N3CCN(Cc4ccc5c(c4)OCO5)CC3)ccc2c1=O`, the IC50 is 143 nM.

As for `CC(=O)c1ccc(N2CCN(C(=S)Nc3ccc(Oc4ccccc4)cc3)CC2)cc1`, the half-maximal inhibitory concentration (IC50) was 1230 nM.

Take `S=C(NCCc1ccccc1)Nc1cccc2cnccc12`: the IC50 is 2620 nM.

As to `COc1cc(CSc2nnnn2-c2ccc(C)cc2)cc(OC)c1OC`, the IC50 was 3440 nM.

One may read the IC50 as the point on the concentration scale where inhibition reaches its midpoint.
